Results: patent US20100041089A1, “IMPROVED METHOD FOR DETECTING CHEMICAL […]” (priority 2006, published 2010)

Tested on: yeast genes (expressed mRNA)
Experiment: DNA chip measurement of expressed mRNA of yeast genes after culture with a toxic chemical substance
Assay type: cell-based, Saccharomyces cerevisiae S288C
Procedure: Yeast (Saccharomyces cerevisiae S288C (a SUC2mal mel gap2 CUP1)) were cultured at 25° C. on YPD medium (yeast extract 1%, polypeptone 2%, glucose 2%). One of toxic chemical substances was added to the cell at logarithmic growth phase, and the cell was further cultured for two hours. Cell was cultured without any chemical substance in the same condition, and was used as a control. Concentrations of the chemical substances were defined to inhibit the growth of the yeast but not lead to death.
After the completion of cultivation, the culture was centrifuged to collect the cells. To the cells, sodium acetate buffer (50 mM sodium acetate, 10 mM EDTA, 1% SDS) was added, and the mixture was shaken at 65° C. for five minutes, followed by returning to room temperature, and obtaining the supernatant, which procedure was repeated two times. To the supernatant, ½ amount of a solution of phenol/chloroform (1:1) was added, and the mixture was centrifuged to give a supernatant, an equal amount of chloroform was added, and the mixture was centrifuged to give a supernatant. To the supernatant, an equal amount of isopropanol containing 0.3 M sodium acetate was added, and the mixture was allowed to stand at room temperature for 30 minutes, after which the mixture was centrifuged to give sediment of the whole RNAs. Seventy % ethanol was added to the sediment, and the mixture was again centrifuged to give sediment, which was then dried and dissolved in water. mRNA was isolated from the whole RNAs as followings. In view of the fact that a poly A chain is attached to the 3′ terminus of mRNA, a polynucleotide having a poly T structure which was immobilized on the surface of latex beads was used to trap the mRNA, and then the mRNA was washed and eluted with spine column (Oligotex-dT30<Super>mRNA Purification Kit, Takara). Reverse transcription of the mRNA was conducted with a reverse transcriptase (Super Script II Reverse Transcriptase; catalogue No. 18064-014, GibcoBRL) using fluorescence-labeled nucleotides to give cDNAs that were introduced with Cy3-dUTP or Cy5-dUTP during the reverse transcription.
The labeled cDNAs were dissolved in TE buffer (10 mM Tris-HCl/1 mM EDTA, pH 8.0), and the solution was dropped on the DNA chip containing the whole genes of yeast (DNA Chip Research Inc. Japan) so that the cDNAs were hybridized on the DNA chip at 65° C. for over 12 hours. The fluoresces intensity of the DNA chip was read with a scanner, and the ratio relative to the fluorescence intensity resulting from the absence of chemical substance was estimated as the following, which is shown in Tables 1 to 9.
In the Tables, “Intensity” indicated in the rightmost column is a value of the level of expressed mRNA of each gene in control cells as divided by the average level of the expressions of the whole genes. A gene of which mRNA level is lower in control, and is higher in cases of addition of chemical substance, is especially useful in the detection of toxic substances.
Here, when a ratio of an amount of mRNA expressed in the presence of the chemical substance to an amount of mRNA expressed in the absence of the chemical substance is two or more, then it is considered significant.

In the case of CN(C)C(=S)SSC(=S)N(C)C [(10), Tetramethylthiuram disulfide], the “The level of expressed mRNA in the presence of chemical substance/The level of expressed mRNA in the absence of chemical substance” value (yeast gene YJL152W, cultured two hours with substance) was 1.0, the “The level of expressed mRNA in the presence of chemical substance/The level of expressed mRNA in the absence of chemical substance” value (yeast gene YJL161W, cultured two hours with substance) was 2.1 and the “The level of expressed mRNA in the presence of chemical substance/The level of expressed mRNA in the absence of chemical substance” value (yeast gene YJL171C, cultured two hours with substance) was 1.7. The “The level of expressed mRNA in the presence of chemical substance/The level of expressed mRNA in the absence of chemical substance” value (yeast gene YJL186W, cultured two hours with substance) was 0.5, the “The level of expressed mRNA in the presence of chemical substance/The level of expressed mRNA in the absence of chemical substance” value (yeast gene YJR008W, cultured two hours with substance) was 1.9 and the “The level of expressed mRNA in the presence of chemical substance/The level of expressed mRNA in the absence of chemical substance” value (yeast gene YJR010W) was 11.1. The “The level of expressed mRNA in the presence of chemical substance/The level of expressed mRNA in the absence of chemical substance” value (yeast gene YJR054W, cultured two hours with substance) was 0.6, the “The level of expressed mRNA in the presence of chemical substance/The level of expressed mRNA in the absence of chemical substance” value (yeast gene YJR155W) was 18.8 and the “The level of expressed mRNA in the presence of chemical substance/The level of expressed mRNA in the absence of chemical substance” value (yeast gene YJR155W, cultured for two hours with substance) was 18.8. For the same compound, the “The level of expressed mRNA in the presence of chemical substance/The level of expressed mRNA in the absence of chemical substance” value (yeast gene YKL070W) was 11.0, the “The level of expressed mRNA in the presence of chemical substance/The level of expressed mRNA in the absence of chemical substance” value (yeast gene YKL071W, cultured two hours with substance) was 109.2 and the “The level of expressed mRNA in the presence of chemical substance/The level of expressed mRNA in the absence of chemical substance” value (yeast gene YKL086W, cultured two hours with substance) was 20.5. The “The level of expressed mRNA in the presence of chemical substance/The level of expressed mRNA in the absence of chemical substance” value (yeast gene YKL151C, cultured two hours with substance) was 3.5, the “The level of expressed mRNA in the presence of chemical substance/The level of expressed mRNA in the absence of chemical substance” value (yeast gene YKL153W, cultured two hours with substance) was 1.4 and the “The level of expressed mRNA in the presence of chemical substance/The level of expressed mRNA in the absence of chemical substance” value (yeast gene YKL195W, cultured two hours with substance) was 2.1. The “The level of expressed mRNA in the presence of chemical substance/The level of expressed mRNA in the absence of chemical substance” value (yeast gene YKR076W) was 43.1, the “The level of expressed mRNA in the presence of chemical substance/The level of expressed mRNA in the absence of chemical substance” value (yeast gene YKR091W, cultured two hours with substance) was 1.6 and the “The level of expressed mRNA in the presence of chemical substance/The level of expressed mRNA in the absence of chemical substance” value (yeast gene YLL060C (detoxification protein gene)) was 23.2. For the same compound, the “The level of expressed mRNA in the presence of chemical substance/The level of expressed mRNA in the absence of chemical substance” value (yeast gene YLL060C (stress protein genes)) was 23.2, the “The level of expressed mRNA in the presence of chemical substance/The level of expressed mRNA in the absence of chemical substance” value (yeast gene YLR054C, cultured two hours with substance) was 1.1 and the “The level of expressed mRNA in the presence of chemical substance/The level of expressed mRNA in the absence of chemical substance” value (yeast gene YLR108C) was 10.4. For the same compound, the “The level of expressed mRNA in the presence of chemical substance/The level of expressed mRNA in the absence of chemical substance” value (yeast gene YLR149C, cultured two hours with substance) was 5.2, the “The level of expressed mRNA in the presence of chemical substance/The level of expressed mRNA in the absence of chemical substance” value (yeast gene YLR152C, cultured two hours with substance) was 1.1 and the “The level of expressed mRNA in the presence of chemical substance/The level of expressed mRNA in the absence of chemical substance” value (yeast gene YLR194C, cultured two hours with substance) was 1.1. The “The level of expressed mRNA in the presence of chemical substance/The level of expressed mRNA in the absence of chemical substance” value (yeast gene YLR217W, cultured two hours with substance) was 8.2, the “The level of expressed mRNA in the presence of chemical substance/The level of expressed mRNA in the absence of chemical substance” value (yeast gene YLR324W, cultured two hours with substance) was 1.4 and the “The level of expressed mRNA in the presence of chemical substance/The level of expressed mRNA in the absence of chemical substance” value (yeast gene YLR350W, cultured two hours with substance) was 1.4. The “The level of expressed mRNA in the presence of chemical substance/The level of expressed mRNA in the absence of chemical substance” value (yeast gene YLR387C, cultured two hours with substance) was 3.0, the “The level of expressed mRNA in the presence of chemical substance/The level of expressed mRNA in the absence of chemical substance” value (yeast gene YLR460C, cultured two hours with substance) was 31.6 and the “The level of expressed mRNA in the presence of chemical substance/The level of expressed mRNA in the absence of chemical substance” value (yeast gene YML117W, cultured two hours with substance) was 1.4. The “The level of expressed mRNA in the presence of chemical substance/The level of expressed mRNA in the absence of chemical substance” value (yeast gene YML131W) was 17.7, the “The level of expressed mRNA in the presence of chemical substance/The level of expressed mRNA in the absence of chemical substance” value (yeast gene YMR009W, cultured two hours with substance) was 2.2 and the “The level of expressed mRNA in the presence of chemical substance/The level of expressed mRNA in the absence of chemical substance” value (yeast gene YMR034C, cultured two hours with substance) was 2.7. For the same compound, the “The level of expressed mRNA in the presence of chemical substance/The level of expressed mRNA in the absence of chemical substance” value (yeast gene YMR067C, cultured two hours with substance) was 3.5, the “The level of expressed mRNA in the presence of chemical substance/The level of expressed mRNA in the absence of chemical substance” value (yeast gene YMR090W, cultured two hours with substance) was 6.1 and the “The level of expressed mRNA in the presence of chemical substance/The level of expressed mRNA in the absence of chemical substance” value (yeast gene YMR095C, cultured two hours with substance) was 1.4. The “The level of expressed mRNA in the presence of chemical substance/The level of expressed mRNA in the absence of chemical substance” value (yeast gene YMR097C, cultured two hours with substance) was 2.1, the “The level of expressed mRNA in the presence of chemical substance/The level of expressed mRNA in the absence of chemical substance” value (yeast gene YMR102C, cultured two hours with substance) was 2.6 and the “The level of expressed mRNA in the presence of chemical substance/The level of expressed mRNA in the absence of chemical substance” value (yeast gene YMR107W, cultured two hours with substance) was 17.1. For the same compound, the “The level of expressed mRNA in the presence of chemical substance/The level of expressed mRNA in the absence of chemical substance” value (yeast gene YMR140W, cultured two hours with substance) was 2.3, the “The level of expressed mRNA in the presence of chemical substance/The level of expressed mRNA in the absence of chemical substance” value (yeast gene YMR180C, cultured two hours with substance) was 2.2 and the “The level of expressed mRNA in the presence of chemical substance/The level of expressed mRNA in the absence of chemical substance” value (yeast gene YMR184W, cultured two hours with substance) was 0.9. For the same compound, the “The level of expressed mRNA in the presence of chemical substance/The level of expressed mRNA in the absence of chemical substance” value (yeast gene YMR191W, cultured two hours with substance) was 3.5, the “The level of expressed mRNA in the presence of chemical substance/The level of expressed mRNA in the absence of chemical substance” value (yeast gene YMR251W, cultured two hours with substance) was 11.6 and the “The level of expressed mRNA in the presence of chemical substance/The level of expressed mRNA in the absence of chemical substance” value (yeast gene YMR295C, cultured two hours with substance) was 0.8. For the same compound, the “The level of expressed mRNA in the presence of chemical substance/The level of expressed mRNA in the absence of chemical substance” value (yeast gene YMR316W, cultured two hours with substance) was 3.0, the “The level of expressed mRNA in the presence of chemical substance/The level of expressed mRNA in the absence of chemical substance” value (yeast gene YMR322C, cultured two hours with substance) was 10.3 and the “The level of expressed mRNA in the presence of chemical substance/The level of expressed mRNA in the absence of chemical substance” value (yeast gene YNL044W, cultured two hours with substance) was 0.8. The “The level of expressed mRNA in the presence of chemical substance/The level of expressed mRNA in the absence of chemical substance” value (yeast gene YNL074C, cultured two hours with substance) was 2.0.
